Source: patent US20100311714A1, “1H-IMIDAZO[4,5-c]QUINOLINONE COMPOUNDS” (priority 2009, published 2010)

What was measured:
Format in all cases: cell-based
[1] = test system: PKB Ser473 phosphorylation in Rat1-myr-HA-p110 delta cells; experiment: Reverse protein array, PKB Ser473 phosphorylation in Rat1-myr-HA-p110 delta cells; conditions: Rattus norvegicus, 0.5 h, 30 minutes compound incubation, read-out: p-PKB/IC50_delta
Protocol: (§1) No. 15140-114) and 10 μg/ml Puromycine (Sigma, cat. No. P9620).
(§2) The Rat1-myr-HA-p110 alpha, beta and delta cells were trypsinized and counted with a CASY TT cell counter (Schärfe System GmbH, Reutlingen Germany). The cells were diluted in fresh DMEM complete medium and 3×10^4 cells/150 μl/well seeded in 96-well TPP-tissue culture plates (TPP, cat. No. 92096). The plates were incubated at 37° C. and 5% CO2 under humidified condition for at least 20 h. Compound of formula I working solutions were prepared freshly as serial 8 step dilutions (vol/vol) in DMSO on the day of the experiment. The working solutions were further diluted 1/500 in cell culture medium to get final compound concentrations of 10, 3.333, 1.111, 0.370, 0.123, 0.041, 0.014, 0.005 μM. The final DMSO concentration was kept constant at 0.2%. cell culture medium containing 0.2% DMSO was used as vehicle treatment control. Post incubation, the cells were treated with the serial compound dilution. 50 μl of the compound medium mixture was added to the wells containing cells and 150 μl DMEM medium and incubated for 30 minutes (37° C., 5% CO2). After 30 minutes of incubation, the medium mixture was quickly removed by aspiration. For cell lysis, a mixture of 10% CLB1 CeLyA lysis buffer (Zeptosens, cat. No. 9000), 90% CSBL1 CeLyA spotting buffer (Zeptosens, cat. No. 9020) was freshly prepared and supplemented with 1% Octyl β-D-glucopyranoside (SIGMA, cat. No. 08001-5G) and 1 mM Na-Orthovanadate (Sigma, cat No. S-6508). 50 μl of the described lysis buffer mix was added to each well, followed by 10 minutes of incubation on ice. After an additional freeze-thaw cycle, another 50 μl of the lysis buffer mix without Octyl β-D-glucopyranoside was added to the wells, and 90 μl of the cell lysate was transferred to a 96-well V-bottom plate (Fisher Scientific, cat. No. 6067Y), followed by a centrifugation step (5 min, 1500 rpm at 19° C. in an Eppendorf 5810R centrifuge) to remove the unlysed cell debris.
(§3) The samples were spotted onto ZeptoMARK® PWG protein microarray chips (Zeptosens, Witterswil, Switzerland) with the piezoelectric microdispense-based, non-contact Nano-Plotter 2.1 (GeSiM, Grosserkmannsdorf, Germany). Each sample was spotted at 4 different sample concentrations (d1=100%, d2=75%, d3=50%, d4=25%) by diluting the cell lysate with the corresponding volume of lysis buffer mix. After spotting the ZeptoMARK® protein microarrays, the chips are incubated for 1 hour at 37° C. To receive a uniform blocking result, the CeLyA blocking buffer BB1 (Zeptosens, cat. No. 9040) is administered via an ultrasonic nebulizer. After 20 minutes of blocking the chips are extensively rinsed with deionized water (Milli-Q quality, 18MΩ×cm) and dried in a nitrogen air flow.
(§4) After the sample spotting and blocking procedure, the ZeptoMARK® chips were transferred to the ZeptoCARRIER (Zeptosens, cat. No. 1100), whose six flow cells individually address the six arrays on a chip, and washed twice with 200 μl CAB1 CeLyA assay buffer (Zeptosens, cat. No. 9032). The assay buffer was then aspirated and each compartment incubated with 100 μl of the primary target antibody (pAkt Ser473; CST#9271) at RT over night. Post incubation, the primary antibody was removed, the arrays washed twice with CAB1 buffer and further incubated with 100 μl of Alexa fluor 647-labeled anti rabbit IgG Fab fragments (Invitrogen; #Z25305) for one hour at RT in the dark. After incubation, the arrays were washed twice with 200 μl CAB1 buffer. The fluorescence of the target-bound Fab fragments is read out on the ZeptoReader (Zeptosens, Witterswil, Switzerland) using a laser (excitation wavelength 635 nm) and a CCD camera. The fluorescence signal was assessed with exposure times of 1, 3, 5 and 10 seconds, depending on the intensity of the signal. The resulting four images taken per array are stored as 16-bit TIF files. […]

[2] = test system: PKB Ser473 phosphorylation in Rat1-myr-HA-p110 alpha cells; experiment: Reverse protein array, PKB Ser473 phosphorylation in Rat1-myr-HA-p110 alpha cells; conditions: Rattus norvegicus, 0.5 h, 30 minutes compound incubation, read-out: p-PKB/IC50_alpha
Protocol: as §1, §2, §3, §4

[3] = test system: PKB Ser473 phosphorylation in Rat1-myr-HA-p110 beta cells; experiment: Reverse protein array, PKB Ser473 phosphorylation in Rat1-myr-HA-p110 beta cells; conditions: Rattus norvegicus, 0.5 h, 30 minutes compound incubation, read-out: p-PKB/IC50_beta
Protocol: as §1, §2, §3, §4

| Compound | IC50 [1] [nM] | IC50 [2] [nM] | IC50 [3] [nM] |
| --- | --- | --- | --- |
| COc1ccc(-n2c(=O)n(C)c3cnc4ccc(-c5cnc(N(C)C)nc5)cc4c32)c(C)n1 [Example 11.4, 8-(2-Dimethylamino-pyrimidin-5-yl)-1-(6-methoxy-2-methyl-pyridin-3-yl)-3-methyl-1,3-dihydro-imidazo[4,5-c]quinolin-2-one] | 136 | 86.6 | 127 |
| COc1ccc(-c2ccc3ncc4c(c3c2)n(-c2ccc(OC)nc2C)c(=O)n4C)cn1 [Example 11.5, 1-(6-Methoxy-2-methyl-pyridin-3-yl)-8-(6-methoxy-pyridin-3-yl)-3-methyl-1,3-dihydro-imidazo[4,5-c]quinolin-2-one] | 66.9 | 16.9 | 40.8 |
| COc1ccc(-n2c(=O)n(C)c3cnc4ccc(-c5cnc(N)c(C(F)(F)F)c5)cc4c32)c(C)n1 [Example 11.6, 8-(6-Amino-5-trifluoromethyl-pyridin-3-yl)-1-(6-methoxy-2-methyl-pyridin-3-yl)-3-methyl-1,3-dihydro-imidazo[4,5-c]quinolin-2-one] | 15.5 | 6.11 | 13 |
| CNc1ncc(-c2ccc3ncc4c(c3c2)n(-c2ccc(OC)nc2C)c(=O)n4C)cn1 [Example 11.3, 1-(6-Methoxy-2-methyl-pyridin-3-yl)-3-methyl-8-(2-methylamino-pyrimidin-5-yl)-1,3-dihydro-imidazo[4,5-c]quinolin-2-one] | 23.2 | 8.83 | 18.1 |
| CNc1ccc(-c2ccc3ncc4c(c3c2)n(-c2ccc(OC)nc2C)c(=O)n4C)cn1 [Example 11.2, 1-(6-Methoxy-2-methyl-pyridin-3-yl)-3-methyl-8-(6-methylamino-pyridin-3-yl)-1,3-dihydro-imidazo[4,5-c]quinolin-2-one] | 31.4 | 6.97 | 15.2 |
